Source: ChEMBL document CHEMBL1156829 (Proc Natl Acad Sci U S A, 2008)

Key:
Plasmodium falciparum [1] = assay: NOVARTIS: Inhibition of Plasmodium falciparum 3D7 (drug-susceptible) proliferation in erythrocyte-based infection assay; type: functional, organism-based; details: Plasmodium falciparum, 3D7
Plasmodium falciparum [2] = assay: NOVARTIS: Inhibition of Plasmodium falciparum W2 (drug-resistant) proliferation in erythrocyte-based infection assay; type: functional, organism-based; details: Plasmodium falciparum, W2; read-out: EC50
[3] = NOVARTIS: Cytotoxicity against human hepatocellular carcinoma cell line (Huh7); type: toxicity, cell-based, Huh-7; details: Huh7 cells (hepatocellular carcinoma cell line)

Structure (SMILES) | EC50 (Plasmodium falciparum [1]) [nM] | EC50 (Plasmodium falciparum [2]) [nM] | CC50 [3] [nM]
O=C(NCCc1ccccc1)C(=O)NN=Cc1ccccc1 | > 1250 | > 82 | > 10000
COc1cc(C(=O)NCCc2cc3ccccc3[nH]2)ccc1OC1CCN(CC(c2ccccc2)c2ccccc2)CC1 | 803 | 94.4 | > 10900
Cc1ccc2[nH]c3c(NCCCN(C)C)ncnc3c2c1 | 77.7 | 355 | 42000
OC(COc1ccc(OCC(O)CN2CCN(CCOc3ccccc3)CC2)cc1)CN1CCN(CCOc2ccccc2)CC1 (centres undefined) | > 11000 | 853 | > 100000
Cc1ccc2[nH]c3c(NCCN(C)C)ncnc3c2c1 | 168 | 254 | 29600
COc1ccc(NC(=O)CCCCCn2c(SCC(=O)NCCc3ccc(OC)c(OC)c3)nc3ccsc3c2=O)cc1 | > 5310 | 837 | > 100000
CCN(CC)CCNc1nc(C=Cc2ccc(Cl)cc2)nc2cc3ccccc3cc12 | 128 | 193 | 22500
COc1cc(N)c(Cl)cc1C(=O)NCC1CCN(c2nc(C)cc(C)n2)CC1 | 345 | 531 | 64900
O=C(CSc1ccc2nnc(-c3cccc(F)c3)n2n1)Nc1ccc2c(c1)OCO2 | 2110 | 819 | > 100000
COC(=O)c1ccc2c(=O)n(Cc3ccco3)c(SCC(=O)n3nc(N)cc3C)nc2c1 | 337 | 819 | > 100000
Fc1ccc(Nc2nc(NCc3ccco3)c3ccccc3n2)cc1 | 191 | 101 | 12400
COc1cc([N+](=O)[O-])ccc1NC(=O)CN1CCN(C(=O)c2ccco2)CC1 | 1600 | 832 | > 100000
Cc1cc(N2CCN(Cc3ccccc3)CC2)n2c(nc3ccccc32)c1C#N | 323 | 832 | > 100000
Cc1cc(C)nc(Nc2nc(C)c3cc(C)c(C)cc3n2)n1 | 1320 | 829 | > 100000
O=C(Cc1cccs1)N1CCC(n2c(Cc3ccc(F)cc3)nc3cccnc32)CC1 | > 12500 | 827 | > 100000
CCOC(=O)c1c(N)n(-c2ccc(CC)cc2)c2nc3ccccc3nc12 | 797 | 823 | > 100000
CCOC(=O)c1cnc2ccc(C)cc2c1NCCCN1CCOCC1 | 900 | 827 | > 100000
Cc1nc(C(C)N(C)Cc2c(C(=O)N3CCCCCCC3)nc3sccn23)c(C)s1 (centres undefined) | > 7030 | 825 | > 100000
CC(C)(C)CC(C)(C)Nc1c(-c2ccccc2OC(=O)c2cccc(Br)c2)nc2ccccn12 | 6620 | 823 | > 100000
COc1ccccc1Nc1nc2cc([N+](=O)[O-])c([N+](=O)[O-])cc2nc1Nc1cccc(Cl)c1 | > 1250 | 82.2 | > 10000
COc1cc(NC(=O)Cn2c3ccccc3c(=O)c3ccccc32)cc(OC)c1OC | 2730 | 816 | > 100000
COc1cc(/C=C\C(=O)Nc2c3c(nn2-c2ccc(F)cc2)CSC3)cc(OC)c1OC | 614 | 84.4 | > 10000
CC(C)(C)Cc1ccc(OCCCC(=O)Nc2ccc(Cl)c(N)c2)c(CC(C)(C)C)c1 | 1730 | 848 | > 100000
C=CCSc1nc2sc3c(c2c(=O)n1-c1ccccc1)CCN(CCC)C3 | 634 | 847 | > 100000
CC(C)(C)c1ccc(Cn2nnc3c(O)nc(C4CCN(C(=O)c5ccccc5)CC4)nc32)cc1 | 242 | 852 | > 100000
CCN1CCN(c2cc(C)c3cc(NC(=O)c4ccc(F)c([N+](=O)[O-])c4)ccc3n2)CC1 | 1160 | 365 | 42900
Cc1cccc(-n2nc(C(C)(C)C)cc2NC(=O)CN(C(=O)/C=C/c2ccccc2)C(C)C)c1C | > 1750 | 85.5 | > 10000

Structure (SMILES) | EC50 (Plasmodium falciparum [1]) [nM] | EC50 (Plasmodium falciparum [2]) [nM] | CC50 [3] [nM]
CC1=C(C(=O)OC(C)C)C(c2cccc([N+](=O)[O-])c2)C2=C(CCCC2=O)N1 (centres undefined) | > 11100 | 854 | > 100000
Cc1cc(C)c(S(=O)(=O)N(C)CCCNc2ccnc3cc(Cl)ccc23)c(C)c1 | 167 | 229 | 26800
CCN(CC)CCN1C(=O)c2ccccc2NC1c1ccc(Cl)cc1 (centres undefined) | 370 | 455 | 53300
CC(=O)Nc1ccc2c(c1)C(=O)N(C(CC(C)(C)C)C(=O)NC1CCCCC1)[C@@H](CCC(=O)O)C(=O)N2 (some centres undefined) | 868 | 51.6 | 6180
COc1ccc(-n2nc3c(c2NC(=O)/C=C\c2cc(OC)c(OC)c(OC)c2)CSC3)cc1 | > 752 | 85.7 | > 10000
C1CCC(CN2CCc3nc(N4CCCCC4)sc3C2)CC1 | 254 | 83.2 | > 10000
CC1=C(C(=O)Nc2ccc(C)cc2C)C(c2cc(Br)ccc2F)n2ncc(C(=O)Nc3ccc(C)cc3)c2N1 (centres undefined) | 2550 | 857 | > 100000
Cc1cc(C)n(-c2ccc(NC(=O)C3CCN(Cc4cnc(C)s4)CC3)cc2)n1 | 811 | 840 | > 100000
CC(=O)N(C1=C(N2CCCC2)C(=O)c2ccccc2C1=O)c1ccc(F)c(F)c1 | 407 | 174 | 20200
Cc1nonc1C(=O)NN=Cc1ccc([N+](=O)[O-])o1 | 1730 | 420 | 49300
CC(C)(C)CC(=O)NCCCCNc1ccnc2cc(Cl)ccc12 | 20.7 | 102 | > 12200
COc1cccc(CCNC(=O)c2ccc(OC3CCN(CC(c4ccccc4)c4ccccc4)CC3)c(OC)c2)c1 | 1070 | 84.5 | > 10000
COc1ccc2[nH]c(=O)c(CN(C(=S)Nc3ccccc3OC)C3CCCC3)cc2c1 | 995 | 824 | > 100000
COc1ccc(C(=O)C[n+]2cc(-c3ccc(OC)cc3)n3c2CCC3)cc1 | 892 | 822 | > 100000
COc1ccccc1Cn1c(SCC(=O)Nc2cccc(C(F)(F)F)c2)nc2ccc(Br)cc2c1=O | 735 | 831 | > 100000
Cc1ccc(C)c(N2CCN(CCCNC(=O)c3ccc(CSc4nc5cnccc5[nH]4)cc3)CC2)c1 | 644 | 190 | 23000
O=C1NN(c2ccc(Br)cc2)C(=O)C1=Cc1c(O)ccc2ccccc12 | 4880 | 818 | > 100000
COc1ccc(C=NN=C2NC(=O)C(CC(=O)Nc3ccccc3)S2)cc1OC (centres undefined) | 482 | 857 | > 100000
Cn1cnc(S(=O)(=O)Nc2ccccc2C(=O)NCC2CC2)c1 | > 1470 | 82.1 | > 10000
COc1cccc(Cn2c3cc(C)sc3c3cnn(C)c(=O)c32)c1 | 497 | 583 | 68600
CCc1nnc2sc(-c3ccc(NC(=O)c4ccc(Br)o4)cc3)nn12 | 5050 | 833 | > 100000
COc1ccc(CNCc2cc3c(-c4ccc(C)cc4)nn(-c4ccccc4)c3[nH]c2=O)cc1 | 133 | 842 | > 100000
CO/C(=C\C(N)=O)C(C)C(/C=C/c1csc(-c2csc(C(C)/C=C/C=C/C(C)C)n2)n1)OC (centres undefined) | 1240 | 84.6 | > 10000
O=C(C1CC1)N1CCc2cc(Br)cc(S(=O)(=O)N3CCCCCC3)c21 | 1430 | 834 | > 100000
C=CCc1c(C)nc2ccccc2c1O | 707 | 844 | > 100000
CC[n+]1c(/C=C/c2ccc(OC)cc2)ccc2ccccc21 | 110 | 85.8 | > 10000
